Tests used:
[1] = Cytotoxicity against human HCT116/VM46 cells assessed as reduction in cell viability after 72 hrs by phosphatase assay; type: cell-based; conditions: HCT-116/VM46, 72 h
L1210 = assay: Antiproliferative activity against mouse L1210 cells after 72 hrs by phosphatase assay; type: functional, cell-based; conditions: L1210, 72 h
HCT-116 = assay: Antiproliferative activity against human HCT116 cells after 72 hrs by phosphatase assay; type: functional, cell-based; conditions: HCT-116, 72 h

Row | SMILES | IC50 (L1210) [µM] | IC50 (HCT-116) [µM] | IC50 [1] [µM]
1 | CC[C@]1(NC(=O)c2ccc3occc3c2)C[C@H]2CN(CCc3c([nH]c4ccccc34)[C@@](C(=O)OC)(c3cc4c(cc3OC)N(C)[C@H]3[C@@](O)(C(=O)OC)[C@H](OC(C)=O)[C@]5(CC)C=CCN6CC[C@]43[C@@H]65)C2)C1 | 0.005 | 0.0038 | 0.025
2 | CC[C@]1(NC(=O)c2cc3ccccc3s2)C[C@H]2CN(CCc3c([nH]c4ccccc34)[C@@](C(=O)OC)(c3cc4c(cc3OC)N(C)[C@H]3[C@@](O)(C(=O)OC)[C@H](OC(C)=O)[C@]5(CC)C=CCN6CC[C@]43[C@@H]65)C2)C1 | 0.0031 | 0.0019 | 0.0092
3 | CC[C@]1(NC(=O)c2ccc3cccc(OC)c3c2)C[C@H]2CN(CCc3c([nH]c4ccccc34)[C@@](C(=O)OC)(c3cc4c(cc3OC)N(C)[C@H]3[C@@](O)(C(=O)OC)[C@H](OC(C)=O)[C@]5(CC)C=CCN6CC[C@]43[C@@H]65)C2)C1 | 0.01 | 0.013 | 0.07
4 | CC[C@]1(NC(=O)c2ccc(CNC(=O)OC(C)(C)C)cc2)C[C@H]2CN(CCc3c([nH]c4ccccc34)[C@@](C(=O)OC)(c3cc4c(cc3OC)N(C)[C@H]3[C@@](O)(C(=O)OC)[C@H](OC(C)=O)[C@]5(CC)C=CCN6CC[C@]43[C@@H]65)C2)C1 | 0.00076 | 0.0007 | 0.05
5 | CCC(C)c1ccc(C(=O)N[C@@]2(CC)C[C@H]3CN(CCc4c([nH]c5ccccc45)[C@@](C(=O)OC)(c4cc5c(cc4OC)N(C)[C@H]4[C@@](O)(C(=O)OC)[C@H](OC(C)=O)[C@]6(CC)C=CCN7CC[C@]54[C@@H]76)C3)C2)cc1 (stereo partly specified) | 0.025 | 0.015 | 0.065
6 | CC[C@]1(NC(=O)/C=C/c2cccnc2)C[C@H]2CN(CCc3c([nH]c4ccccc34)[C@@](C(=O)OC)(c3cc4c(cc3OC)N(C)[C@H]3[C@@](O)(C(=O)OC)[C@H](OC(C)=O)[C@]5(CC)C=CCN6CC[C@]43[C@@H]65)C2)C1 | 0.0059 | 0.0057 | 0.32
7 | CC[C@]1(NC(=O)c2ccc3c(c2)OCO3)C[C@H]2CN(CCc3c([nH]c4ccccc34)[C@@](C(=O)OC)(c3cc4c(cc3OC)N(C)[C@H]3[C@@](O)(C(=O)OC)[C@H](OC(C)=O)[C@]5(CC)C=CCN6CC[C@]43[C@@H]65)C2)C1 | 0.0006 | 0.0008 | 0.0087
8 | CC[C@]1(NS(=O)(=O)c2ccccc2[N+](=O)[O-])C[C@H]2CN(CCc3c([nH]c4ccccc34)[C@@](C(=O)OC)(c3cc4c(cc3OC)N(C)[C@H]3[C@@](O)(C(=O)OC)[C@H](OC(C)=O)[C@]5(CC)C=CCN6CC[C@]43[C@@H]65)C2)C1 | 0.36 | 0.42 | 0.44

Second part, led by results:

Row | IC50 (L1210) [µM] | IC50 (HCT-116) [µM] | SMILES | IC50 [1] [µM]
9 | 0.06 | 0.06 | CCC(=O)N[C@@]1(CC)C[C@H]2CN(CCc3c([nH]c4ccccc34)[C@@](C(=O)OC)(c3cc4c(cc3OC)N(C)[C@H]3[C@@](O)(C(=O)OC)[C@H](OC(C)=O)[C@]5(CC)C=CCN6CC[C@]43[C@@H]65)C2)C1 | 2.1
10 | 0.0085 | 0.0087 | CC[C@]1(NC(=O)c2ccc(Cl)c(Cl)c2)C[C@H]2CN(CCc3c([nH]c4ccccc34)[C@@](C(=O)OC)(c3cc4c(cc3OC)N(C)[C@H]3[C@@](O)(C(=O)OC)[C@H](OC(C)=O)[C@]5(CC)C=CCN6CC[C@]43[C@@H]65)C2)C1 | 0.08
11 | 0.03 | 0.025 | CC[C@]1(NC(=O)C2CCCC2)C[C@H]2CN(CCc3c([nH]c4ccccc34)[C@@](C(=O)OC)(c3cc4c(cc3OC)N(C)[C@H]3[C@@](O)(C(=O)OC)[C@H](OC(C)=O)[C@]5(CC)C=CCN6CC[C@]43[C@@H]65)C2)C1 | 0.38
12 | 0.03 | 0.01 | CC[C@]1(NC(=O)c2ccccc2OC)C[C@H]2CN(CCc3c([nH]c4ccccc34)[C@@](C(=O)OC)(c3cc4c(cc3OC)N(C)[C@H]3[C@@](O)(C(=O)OC)[C@H](OC(C)=O)[C@]5(CC)C=CCN6CC[C@]43[C@@H]65)C2)C1 | 0.1
